From ChEMBL document CHEMBL3627683, “Effective Two-Photon Excited Photodynamic Therapy of Xenograft Tumors Sensitized by Water-Soluble Bis(arylidene)cycloalkanone Photosensitizers” (J Med Chem, 2015)
Converted amounts (≈) assume the structure as drawn. The source made the active and inactive calls. No cut-off for these calls is given here.

Assays:
[1] = Dark toxicity in human HepG2 cells assessed as cell viability measured after 24 hrs by CCK-8 assay; assay type: cell-based; conditions: read-out: TC50
[2] = Drug uptake in mitochondria of human HepG2 cells at 5 uM for 4 hrs by MitoLite NIR staining-based CLSM analysis; assay type: ADME; conditions: hepg2, 4 h
[3] = Octanol-water partition coefficient, log P of the compound; assay type: physicochemical
[4] = Therapeutic ratio of TC50 for human HepG2 cells to IC50 for human HepG2 cells under irradiation at 800 nm; assay type: ADME, cell-based; conditions: read-out: TI
[5] = system: HepG2; test: Photocytotoxicity against human HepG2 cells assessed as cell viability preincubated for 4 hrs in dark condition followed by irradiation at 800 nm for 10 mins measured 24 hrs post incubation in dark condition by CCK-8 assay; assay type: functional, cell-based; conditions: HepG2, light or radiation study
[6] = system: HepG2; test: Photocytotoxicity against human HepG2 cells assessed as cell viability preincubated for 4 hrs in dark condition followed by irradiation at 532 nm for 20 mins measured 24 hrs post incubation in dark condition by CCK-8 assay; assay type: functional, cell-based; conditions: HepG2, light or radiation study
[7] = Therapeutic ratio of TC50 for human HepG2 cells to IC50 for human HepG2 cells under irradiation at […]; assay type: ADME, cell-based; conditions: read-out: TI
[8] = Solubility of the compound in PBS; assay type: physicochemical
[9] = Drug uptake in mitochondria of human HepG2 cells by MitoLite NIR staining-based CLSM analysis; assay type: ADME; conditions: TDE = time-dependent effect
[10] = system: CCRF S-180; test: Antitumor activity against mouse S180 cells implanted in BALB/c mouse assessed as tumor growth inhibition at 17.5 mg/kg, iv administered 3 hrs followed by irradiation at 800 nm for 25 mins measured every other day until 12 days relative to control; assay type: functional; conditions: CCRF S-180, light or radiation study, read-out: TGI
[11] = system: CCRF S-180; test: Antitumor activity against mouse S180 cells implanted in BALB/c mouse assessed as prolongation of survival at 17.5 mg/kg, iv administered 3 hrs in the absence of irradiation measured by Kaplan-Meier analysis; assay type: functional, organism-based
[12] = system: CCRF S-180; test: Antitumor activity against mouse S180 cells implanted in BALB/c mouse assessed as prolongation of survival at 17.5 mg/kg, iv administered 3 hrs followed by irradiation at 800 nm for 25 mins measured by Kaplan-Meier analysis; assay type: functional, organism-based
[13] = system: CCRF S-180; test: Drug uptake in mouse S180 cells implanted in BALB/c mouse at 17.5 mg/kg, iv measured at 3 to 24 hrs by CSLM analysis; assay type: ADME, organism-based; conditions: in vivo
[14] = system: CCRF S-180; test: Drug uptake in mouse S180 cells implanted in BALB/c mouse at 17.5 mg/kg, iv measured within 3 hrs by CSLM analysis; assay type: ADME, organism-based; conditions: in vivo
[15] = system: Mus musculus; test: Induction of blood vessels blockage in BALB/c mouse dorsal skinfold window chamber model at 17.5 mg/kg, iv irradiated at 800 nm for 5 mins monitored by stereomicroscopic analysis; assay type: functional, organism-based; conditions: Blood vessel
[16] = system: HepG2; test: Induction of ROS generation in human HepG2 cells at 5 uM preincubated for 4 hrs followed by DCFH-DA addition for 0.5 hrs in absence of irradiation measured by CSLM; assay type: functional, cell-based
[17] = system: CCRF S-180; test: Antitumor activity against mouse S180 cells implanted in BALB/c mouse assessed as tumor growth inhibition at 17.5 mg/kg, iv administered 3 hrs followed by irradiation at 800 nm for 25 mins measured every other day until 12 days […]; assay type: functional, organism-based
[18] = system: HepG2; test: Induction of ROS generation in human HepG2 cells at 5 uM preincubated for 4 hrs followed by DCFH-DA addition for 0.5 hrs and irradiation at 800 nm for 10 mins measured by CLSM; assay type: functional, cell-based

| Drug uptake [2] | logP [3] | solubility [8] [mg/mL] | Drug uptake [9] | Drug uptake [13] | Drug uptake [14] | SMILES | CC50 at 24 h [1] [µM] | selectivity ratio [4] | IC50 [5] [µM] | IC50 [6] [µM] | selectivity ratio [7] | inhibition in vivo at 17.5 mg/kg [10] [%] | Activity [11] | Activity [12] | Activity [15] | Activity [16] | TGI [17] | Activity [18] |
| --- | --- | --- | --- | --- | --- | --- | --- | --- | --- | --- | --- | --- | --- | --- | --- | --- | --- | --- |
| Active | 3.2 | 1.8 (≈ 2.52 mM) | tde | – | – | CCN(CC)c1ccc(C=C2CC(=Cc3ccc(N(CCOCCOCCOCCOC)CCOCCOCCOCCOC)cc3)C2=O)cc1 | 24 | 12.8 | 1.87 | 1.27 | 18.9 | – | – | – | – | – | – | – |
| Active | 2.86 | 0.3 (≈ 0.438 mM) | tde | – | – | COCCOCCOCCOCCN(C)c1ccc(C=C2CC(=Cc3ccc(N(C)CCOCCOCCOCCOC)cc3)C2=O)cc1 | 34 | 2.58 | 13.2 | 2.26 | 15 | – | – | – | – | – | – | – |
| Active | 3.04 | > 100 | tde | Not Active | Active | CCN(CC)c1ccc(C=C2CC(=Cc3ccc(N(CCOCCOCCOCCOCCOC)CCOCCOCCOCCOCCOC)cc3)C2=O)cc1 | 35.9 | 9.13 | 3.93 | 1.41 | 25.5 | 43 | inactive | Active | Active | inactive | inactive | Active |

Further lines, the compound ahead of its results:

| SMILES | Drug uptake [2] | logP [3] | solubility [8] [mg/mL] | Drug uptake [9] | Drug uptake [13] | Drug uptake [14] | CC50 at 24 h [1] [µM] | selectivity ratio [4] | IC50 [5] [µM] | IC50 [6] [µM] | selectivity ratio [7] | inhibition in vivo at 17.5 mg/kg [10] [%] | Activity [11] | Activity [12] | Activity [15] | Activity [16] | TGI [17] | Activity [18] |
| --- | --- | --- | --- | --- | --- | --- | --- | --- | --- | --- | --- | --- | --- | --- | --- | --- | --- | --- |
| COCCOCCOCCOCCOCCN(C)c1ccc(C=C2CC(=Cc3ccc(N(C)CCOCCOCCOCCOCCOC)cc3)C2=O)cc1 | Active | 2.54 | > 100 | tde | – | – | 41.9 | 2.49 | 16.8 | 3.07 | 13.6 | – | – | – | – | – | – | – |
| CCN(CC)c1ccc(/C=C2\CC/C(=C\c3ccc(N(CCOCCOCCOCCOCCOC)CCOCCOCCOCCOCCOC)cc3)C2=O)cc1 | Active | 3.2 | > 100 | tde | – | – | 20.9 | 4.48 | 4.66 | 1.61 | 13 | – | – | – | – | – | – | – |
| COCCOCCOCCOCCOCCN(C)c1ccc(/C=C2\CC/C(=C\c3ccc(N(C)CCOCCOCCOCCOCCOC)cc3)C2=O)cc1 | Active | 2.73 | > 100 | tde | – | – | 41.5 | 2.79 | 14.9 | 2.59 | 16 | – | – | – | – | – | – | – |
